Earlier results as cited in patent US20100076037A1, “Methods of Treating Neuropathic Pain with Agonists of PPAR-gamma” (priority 2006, published 2010).
Like-named read-outs stand apart in the source and are kept apart here.

What was measured:
PPARalpha = target: T1, PPARalpha (Homo sapiens, UniProt Q07869); conditions: first value of the pair given as α/γ; read-out: EC50 for PPARalpha agonism; cited from earlier work
T1 sequence (Q07869 1-468): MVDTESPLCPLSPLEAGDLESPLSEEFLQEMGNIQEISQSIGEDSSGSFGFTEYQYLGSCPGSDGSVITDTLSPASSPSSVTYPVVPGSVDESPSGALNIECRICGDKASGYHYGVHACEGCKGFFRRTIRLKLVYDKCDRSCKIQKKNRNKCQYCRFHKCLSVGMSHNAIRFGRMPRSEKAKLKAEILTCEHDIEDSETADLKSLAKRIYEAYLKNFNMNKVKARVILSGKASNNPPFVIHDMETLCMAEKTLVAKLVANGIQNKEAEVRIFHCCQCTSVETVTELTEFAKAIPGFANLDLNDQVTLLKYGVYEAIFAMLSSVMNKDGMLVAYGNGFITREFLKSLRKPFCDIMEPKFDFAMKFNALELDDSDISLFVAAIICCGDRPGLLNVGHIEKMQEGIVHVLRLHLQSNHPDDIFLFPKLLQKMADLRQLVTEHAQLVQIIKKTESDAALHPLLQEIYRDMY

PPARγ = PPARγ (Homo sapiens, UniProt P37231); conditions: second value of the pair printed as α/γ; read-out: EC50 for PPAR γ agonism; cited from earlier work
Chain of PPARγ (P37231 whole entry, species assumed): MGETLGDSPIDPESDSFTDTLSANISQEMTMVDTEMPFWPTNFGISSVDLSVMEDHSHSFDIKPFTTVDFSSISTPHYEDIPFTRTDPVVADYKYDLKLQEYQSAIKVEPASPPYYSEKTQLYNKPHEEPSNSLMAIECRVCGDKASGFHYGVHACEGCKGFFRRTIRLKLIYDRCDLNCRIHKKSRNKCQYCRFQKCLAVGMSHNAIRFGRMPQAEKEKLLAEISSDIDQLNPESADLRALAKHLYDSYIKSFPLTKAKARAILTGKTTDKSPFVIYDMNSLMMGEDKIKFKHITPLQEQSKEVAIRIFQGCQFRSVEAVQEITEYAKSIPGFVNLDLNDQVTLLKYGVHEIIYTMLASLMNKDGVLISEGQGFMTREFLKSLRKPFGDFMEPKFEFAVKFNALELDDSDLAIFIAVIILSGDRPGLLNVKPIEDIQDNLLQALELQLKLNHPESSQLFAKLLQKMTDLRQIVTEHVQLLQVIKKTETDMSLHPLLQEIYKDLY

db/db mice = conditions: cited from earlier work
ob/ob mice [1] = conditions: cited from earlier work
[2] = cited from earlier work
[3] = presence and absence of insulin; cited from earlier work
PPARalpha target protein = conditions: HepG2; cited from earlier work
human macrophages = conditions: 5 microM; cells exposed to high fatty acids and TGs; cited from earlier work
[4] = test system: arterial smooth muscle cells (SMCs); conditions: 5 or 10 microM; cited from earlier work
cytochrome P450 (CYP)4A = conditions: 0.13 microg/kg; cited from earlier work
obese Zucker rats = conditions: cited from earlier work
[5] = test system: human apoB/CETP double-transgenic mouse; conditions: tesaglitazar 1 microM/kg/day for 2 weeks; cited from earlier work
high-fat-fed Wistar rats = conditions: cited from earlier work
ob/ob mice [6] = conditions: cited from earlier work; remark: listed apart in the source
[7] = test system: apoE*3 Leiden transgenic mice; conditions: cited from earlier work
P-glycoprotein = target: T2, P-glycoprotein (Homo sapiens, UniProt P08183); conditions: cited from earlier work
T2 construct: host or cells: Caco2 and MDCK-MDR1 monolayers (tie to the P-gp statement is grammatically loose)
T2 sequence (P08183 whole entry): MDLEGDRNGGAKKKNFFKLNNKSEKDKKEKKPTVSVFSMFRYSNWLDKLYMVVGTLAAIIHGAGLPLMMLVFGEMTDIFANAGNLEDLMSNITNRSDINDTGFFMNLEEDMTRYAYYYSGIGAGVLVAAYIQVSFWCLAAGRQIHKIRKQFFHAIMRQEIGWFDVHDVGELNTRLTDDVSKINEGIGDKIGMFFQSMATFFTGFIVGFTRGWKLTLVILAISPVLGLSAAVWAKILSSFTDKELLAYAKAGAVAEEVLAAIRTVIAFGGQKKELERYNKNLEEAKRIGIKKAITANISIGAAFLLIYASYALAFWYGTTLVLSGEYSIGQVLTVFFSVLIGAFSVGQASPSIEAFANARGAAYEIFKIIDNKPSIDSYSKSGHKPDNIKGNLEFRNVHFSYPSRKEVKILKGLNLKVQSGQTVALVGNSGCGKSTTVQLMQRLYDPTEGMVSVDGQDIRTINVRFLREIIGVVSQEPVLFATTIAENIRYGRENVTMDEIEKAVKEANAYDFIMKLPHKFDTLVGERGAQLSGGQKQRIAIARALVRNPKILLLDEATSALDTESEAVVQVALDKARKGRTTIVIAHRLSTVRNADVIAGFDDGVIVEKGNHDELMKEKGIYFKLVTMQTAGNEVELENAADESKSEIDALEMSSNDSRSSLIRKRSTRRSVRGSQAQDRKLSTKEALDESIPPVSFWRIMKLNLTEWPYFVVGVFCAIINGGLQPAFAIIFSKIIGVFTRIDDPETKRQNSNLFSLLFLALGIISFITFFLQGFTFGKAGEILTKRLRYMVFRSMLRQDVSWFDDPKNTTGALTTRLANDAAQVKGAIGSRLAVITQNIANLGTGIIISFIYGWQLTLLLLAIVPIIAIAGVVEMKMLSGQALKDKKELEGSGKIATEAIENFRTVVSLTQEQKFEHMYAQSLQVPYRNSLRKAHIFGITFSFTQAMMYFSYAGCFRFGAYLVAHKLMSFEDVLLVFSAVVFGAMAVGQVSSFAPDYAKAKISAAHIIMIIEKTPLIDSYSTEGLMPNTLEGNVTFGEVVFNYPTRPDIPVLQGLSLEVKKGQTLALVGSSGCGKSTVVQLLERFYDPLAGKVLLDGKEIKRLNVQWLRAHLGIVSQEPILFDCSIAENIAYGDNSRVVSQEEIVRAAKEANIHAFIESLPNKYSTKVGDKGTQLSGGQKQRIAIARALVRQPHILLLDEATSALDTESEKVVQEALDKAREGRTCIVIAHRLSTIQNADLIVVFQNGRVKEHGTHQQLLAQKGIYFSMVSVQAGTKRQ

[8] = test system: recombinant human CYPs (CYP1A2, CYP2A6, CYP2C8, CYP2C9, CYP2C19, CYP2D6 and CYP3A4); conditions: 0.09 to 200 microM; cited from earlier work
[9] = cited from earlier work; remark: listed apart in the source
[10] = 1 mg, cited from earlier work
[11] = healthy males; cited from earlier work
type 2 diabetic patients = conditions: cited from earlier work; for decrease of mean fasting plasma glucose, placebo-corrected: 12 weeks
[12] = test system: non-diabetic but insulin-resistant patients; conditions: cited from earlier work; for reduction of prevalence of metabolic syndrome: NCEP ATPIII criteria
diabetic patients = conditions: human, in vivo; cited from earlier work
mPPARalpha = mPPARalpha (Mus musculus, UniProt P23204); conditions: read-out: EC50 reporter gene assay, U2 OS cells; cited from earlier work
Chain of mPPARalpha (P23204 whole entry): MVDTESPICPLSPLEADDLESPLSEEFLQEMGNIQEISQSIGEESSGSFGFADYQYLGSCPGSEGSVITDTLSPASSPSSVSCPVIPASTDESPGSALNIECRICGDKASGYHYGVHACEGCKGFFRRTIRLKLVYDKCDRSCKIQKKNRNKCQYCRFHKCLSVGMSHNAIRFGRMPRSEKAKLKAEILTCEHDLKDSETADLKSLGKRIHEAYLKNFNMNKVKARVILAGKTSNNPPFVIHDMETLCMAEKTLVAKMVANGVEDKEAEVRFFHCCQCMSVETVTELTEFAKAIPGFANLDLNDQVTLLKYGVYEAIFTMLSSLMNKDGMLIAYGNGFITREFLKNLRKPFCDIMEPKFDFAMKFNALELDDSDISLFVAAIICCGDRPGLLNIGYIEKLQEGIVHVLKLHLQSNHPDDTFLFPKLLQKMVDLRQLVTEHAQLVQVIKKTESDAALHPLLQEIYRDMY

[13] = test system: multidrug resistance protein 2; conditions: cited from earlier work
[14] = dose for 25% reduction in fasting plasma glucose, insulin and serum TG

Structure (SMILES): O=C1NC(=O)C(Cc2ccc3cc(OCc4ccccc4F)ccc3c2)S1 (stereo not shown) [MCC-555]
- EC50 (PPARalpha): 3 µM
- EC50 (PPARγ): 0.1 µM

Structure (SMILES): Cc1oc(-c2ccccc2)nc1CCOc1ccc(CC2SC(=O)NC2=O)c2sccc12 (stereo not shown) [edaglitazone]
- lowering of free fatty acid levels (db/db mice; 1 mg/kg): 16%
- reduction in serum triglyceride levels (db/db mice; 1 mg/kg): 14%
- lowering of free fatty acid levels (db/db mice; 10 mg/kg): 70%
- reduction in serum triglyceride levels (db/db mice; 10-mg·kg dose): 70%
- lowering of non-starved blood glucose (db/db mice; 25-mg dose, 12 days): 52%
- hypoglycemia (db/db mice; chronic treatment with 100 mg/kg): did not result in hypoglycemia
- reduction of AUC(glucose) (ob/ob mice [1]; 1 mg/kg, 14 days): 44%
- reduction in non-starved blood glucose concentration (ob/ob mice [1]; 0.25 to 10 mg/kg, 12 days): 29%
- serum insulin levels (ob/ob mice [1]; all doses): dose-dependently decreased
- reduction in non-starved blood glucose concentration (ob/ob mice [1]; higher doses): 45%
- accumulation ([2]; once-daily dosing over 6 weeks): did not accumulate
- tolerability ([2]; single ascending dose): very well tolerated
- time to plasma peak levels after dosing ([2]; single doses 1-160 mg, healthy males): 2 to 4 h
- rate of glucose oxidation [3]: increased

Structure (SMILES): CCO[C@@H](Cc1ccc(OCCc2ccc(OS(C)(=O)=O)cc2)cc1)C(=O)O [tesaglitazar, (S)-2-ethoxy-3-[4-(2-{4-methanesulfonyloxyphenyl}ethoxy)phenyl]propanoic acid]
- potency relative to bezafibrate (PPARalpha target protein): approximately 10 fold
- cholesterol efflux, % of the control level (human macrophages): 156%
- decrease of affinity of human LDL for unbound GAGs [4]: 3- to 4 fold
- linoleate-induced production of LDL-binding GAGs [4]: abolished
- upregulation of CYP4A relative to controls (cytochrome P450 (CYP)4A): 15 fold
- free fatty acid utilization in adipose tissue, skeletal muscle, liver and heart (obese Zucker rats; 3 micromol/kg/day for 3 weeks, insulin level-clamped): reduced
- glucose utilization in muscle and fat (obese Zucker rats; 3 micromol/kg/day for 3 weeks): increased
- measures of whole-body insulin sensitivity (obese Zucker rats; 3 micromol/kg/day orally, 3 or 4 weeks): consistently improved or normalized
- normalization of total insulin (obese Zucker rats; basal conditions, toward lean control): 76%
- normalization of C-peptide (obese Zucker rats; basal conditions): 61%
- normalization of TGs (obese Zucker rats; basal conditions): 67%
- normalization of free fatty acids (obese Zucker rats; basal conditions): 15%
- glucose infusion rate higher than required in lean controls (obese Zucker rats; clamp conditions): 13%
- increase of rate of glucose infusion vs untreated rats (obese Zucker rats; clamp conditions): 7.6 fold
- normalization of C-peptide (obese Zucker rats; clamp conditions): 63%
- normalization of TGs (obese Zucker rats; clamp conditions): 72%
- normalization of free fatty acids (obese Zucker rats; clamp conditions): 70%
- normalization of total insulin (obese Zucker rats; clamp conditions): 82%
- VLDL apolipoprotein (apo)CIII content (obese Zucker rats; fasted obese Zucker rats): reduced
- increase of plasma TG clearance (obese Zucker rats; fasted obese Zucker rats): 490%
- reduction of rate of hepatic TG production (obese Zucker rats; fasted obese Zucker rats): 47%
- normalization of postprandial excursion in plasma glucose (obese Zucker rats; glucose/TG (1.7/2.0 g/kg) test meal): 80%
- normalization of postprandial excursion in TGs (obese Zucker rats; glucose/TG test meal): 92%
- normalization of postprandial excursion in free fatty acids (obese Zucker rats; glucose/TG test meal): 75%
- normalization of postprandial excursion in insulin (obese Zucker rats; glucose/TG test meal): 85%
- plasma TGs, apoB100 and plasma CETP activity [5]: reduced
- basal TG levels (high-fat-fed Wistar rats; 1 micromol/kg/day for 1 week): reduced
- increase of glucose infusion rate during clamping (high-fat-fed Wistar rats; 1 micromol/kg/day for 1 week): 29%
- reduction of basal plasma insulin levels (high-fat-fed Wistar rats; 1 micromol/kg/day for 1 week): 36%
- increase of uptake of non-esterified fatty acids in white adipose tissue (high-fat-fed Wistar rats; 1 micromol/kg/day for 3 weeks, basal conditions): 52%
- hyperglycemia (ob/ob mice [6]; 1 micromol/kg/day for 1 week): normalized
- potency relative to pioglitazone (ob/ob mice [6]; [14]): 250 fold
- potency relative to rosiglitazone (ob/ob mice [6]; [14]): 7 fold
- reduction of plasma cholesterol levels ([7]; 0.5 microg/kg of diet, low- or high-fat diets): approximately 21.5%
- reduction of TG levels ([7]; 0.5 microg/kg of diet): approximately 40%
- reduction of cross-sectional area of atheromic lesions in the aortic root ([7]; high-fat fed, 28 weeks): 92%
- reduction of cross-sectional area of atheromic lesions in the aortic root ([7]; low-fat fed, 16 weeks): 65%
- substrate of P-glycoprotein (P-glycoprotein): not substrates of P-glycoprotein
- effect on activity of CYP drug metabolizing enzymes [8]: no effect
- AUC ([9]; 1 mg intravenous): 16.2 micromolxh/l
- AUC ([9]; 1 mg oral): 16.1 micromolxh/l
- adverse events ([9]; 1 mg po or iv, healthy volunteers): no serious adverse events
- oral bioavailability ([9]; 1 mg): ~100%
- clearance (Cl) ([9]; in vivo): 0.16 L/h
- elimination half-life ([9]; in vivo): ~45 h
- protein-bound ([9]; in vivo): 99.9%
- volume of distribution at steady state (Vdss) ([9]; in vivo): 9.1 L
- Cmax ([9]; single 1-mg oral dose): 610 nM
- median Tmax ([9]; single 1-mg oral dose): ~0.5 h
- Tmax ([10]; fasted state): 1 h
- Tmax ([10]; fed state): 2.5 h
- pharmacokinetic interactions with glibenclamide or metformin [11]: No pharmacokinetic interactions
- decrease of mean fasting plasma glucose, placebo-corrected (type 2 diabetic patients; 0.1 mg once daily): 8.9 mg/dL
- decrease of mean fasting plasma glucose, placebo-corrected (type 2 diabetic patients; 0.5 mg): 30.3 mg/dL
- decrease of mean fasting plasma glucose, placebo-corrected (type 2 diabetic patients; 1.0 mg): 41.1 mg/dL
- greatest increase in serum HDL-cholesterol (type 2 diabetic patients; 1 mg): 15.0%
- decrease of mean fasting plasma glucose, placebo-corrected (type 2 diabetic patients; 2.0 mg): 55.0 mg/dL
- decrease of mean fasting plasma glucose, placebo-corrected (type 2 diabetic patients; 3.0 mg): 60.9 mg/dL
- greatest reduction of LDL-cholesterol (type 2 diabetic patients; 3 mg): 17.3%
- greatest reduction of VLDL-cholesterol (type 2 diabetic patients; 3 mg): 52.5%
- maximum reduction in free fatty acids (type 2 diabetic patients; 2-mg dose): 36.7%
- maximum reduction in serum TGs (type 2 diabetic patients; 2-mg dose): 41.0%
- mean increase in serum creatinine ([12]; 0.1 mg): 1 µmol/L
- patients with adverse events ([12]; 0.1 mg): 65%
- reduction in mean hemoglobin level ([12]; 0.1 mg): 0.16 mmol/L
- patients with adverse events ([12]; 0.25 mg): 51%
- reduction of prevalence of metabolic syndrome ([12]; 0.5 mg): 49%
- fall in prevalence of impaired fasting glucose ([12]; 0.5 mg): 23%
- patients with adverse events ([12]; 0.5 mg): 67%
- mean reduction in fasting serum TGs, placebo-corrected ([12]; 1 mg, 12 weeks): 37%
- reduction of prevalence of metabolic syndrome ([12]; 1.0 mg): 45%
- reduction of AUC for plasma free fatty acids ([12]; 1 mg, after lipid-rich meal): 29%
- reduction of AUC for plasma insulin ([12]; 1 mg, after lipid-rich meal): 31%
- reduction of AUC for serum TGs ([12]; 1 mg, after lipid-rich meal): 41%
- reduction of AUC for serum glycerol ([12]; 1 mg, after lipid-rich meal): 34%
- reduction of plasma glucose level at 2 h ([12]; 1 mg, after lipid-rich meal): 27%
- increase in serum HDL-cholesterol ([12]; 1 mg): 16%
- mean reduction in fasting insulin ([12]; 1 mg): 35%
- mean reduction in non-HDL-cholesterol ([12]; 1 mg): 15%
- mean reduction in non-esterified fatty acids ([12]; 1 mg): 40%
- mean reduction in plasma glucose concentration ([12]; 1 mg): 0.47 mmol/L
- reduction in mean hemoglobin level ([12]; 1 mg): 0.55 mmol/L
- fall in prevalence of impaired fasting glucose ([12]; 1.0 mg): 59%
- mean increase in serum creatinine ([12]; 1.0 mg): 8 µmol/L
- patients with adverse events ([12]; 1.0 mg): 60%
- increase in weight ([12]; 0.5 and 1 mg, 12 weeks): approximately 1 kg
- increase of ApoA-1 ([12]; 1-mg dose): 4%
- reduction of ApoB ([12]; 1-mg dose): 12%
- reduction of ApoB/ApoA-1 ratio ([12]; 1-mg dose): 16%
- reduction of ApoCIII ([12]; 1-mg dose): 25%
- rates of edema (diabetic patients): 4.2 to 6.8%
- EC50 (mPPARalpha): 32 µM
- transport in Caco2 and MDCK-MDR1 monolayers [13]: apparently transported by multidrug resistance protein 2
